Measured values published in ChEMBL document CHEMBL4837243, “Discovery of TDI-10229: A Potent and Orally Bioavailable Inhibitor of Soluble Adenylyl Cyclase (sAC, ADCY10)” (ACS Med Chem Lett, 2021).
Values after ≈ are worked out from the molar mass of the structure shown.

Experiments:
[1] = biological target: Adenylate cyclase type 10 (Homo sapiens, UniProt Q96PN6)
Description: Inhibition of human soluble adenylyl cyclase assessed as reduction in cAMP levels in the presence of alpha-32p labeled ATP by biochemical assay

[2] = Octanol-water partition coefficient, logD of the compound at pH 7.4 by HPLC analysis; assay type: physicochemical
[3] = Kinetic solubility of compound by UV- absorbance analysis
[4] = Permeability of the compound in PRISMA HT buffer at pH 7.4 at 10 umol/L incubated for 3 hrs bt PAMPA based LC/MS/MS analysis; assay type: ADME; details: dose 10 µmol/L, read-out: permeability
[5] = Cmax in CD1 mouse at 20 mg/kg, ip measured up to 24 hrs; assay type: ADME, organism-based; parameters: route intraperitoneal, dose 20 mg/kg, time <=24; details: in vivo
[6] = Cmax in CD1 mouse at 20 mg/kg, po measured up to 24 hrs; assay type: ADME, organism-based; parameters: route oral, dose 20 mg/kg, time <=24; details: in vivo
[7] = Bioavailability in mouse; assay type: ADME, organism-based; details: in vivo, dose 20 mg/kg
[8] = Mean residence time in CD1 mouse at 20 mg/kg, ip measured up to 24 hrs; assay type: ADME, organism-based; details: in vivo
[9] = Mean residence time in CD1 mouse at 20 mg/kg, po measured up to 24 hrs; assay type: ADME, organism-based; details: in vivo
[10] = AUC in CD1 mouse at 20 mg/kg, po measured up to 24 hrs; assay type: ADME, organism-based; parameters: route oral, dose 20 mg/kg, time <=24; details: in vivo
[11] = AUC in CD1 mouse at 20 mg/kg, ip measured up to 24 hrs; assay type: ADME, organism-based; parameters: route intraperitoneal, dose 20 mg/kg, time <=24; details: in vivo
[12] = Clearance in human liver microsomes; assay type: ADME, Microsome; details: read-out: CLH
[13] = Clearance in mouse liver microsomes; assay type: ADME, Microsome; details: read-out: CLH
[14] = Oral bioavailability in mouse; assay type: ADME, organism-based; details: in vivo

Sequence of Adenylate cyclase type 10 (Q96PN6 whole entry): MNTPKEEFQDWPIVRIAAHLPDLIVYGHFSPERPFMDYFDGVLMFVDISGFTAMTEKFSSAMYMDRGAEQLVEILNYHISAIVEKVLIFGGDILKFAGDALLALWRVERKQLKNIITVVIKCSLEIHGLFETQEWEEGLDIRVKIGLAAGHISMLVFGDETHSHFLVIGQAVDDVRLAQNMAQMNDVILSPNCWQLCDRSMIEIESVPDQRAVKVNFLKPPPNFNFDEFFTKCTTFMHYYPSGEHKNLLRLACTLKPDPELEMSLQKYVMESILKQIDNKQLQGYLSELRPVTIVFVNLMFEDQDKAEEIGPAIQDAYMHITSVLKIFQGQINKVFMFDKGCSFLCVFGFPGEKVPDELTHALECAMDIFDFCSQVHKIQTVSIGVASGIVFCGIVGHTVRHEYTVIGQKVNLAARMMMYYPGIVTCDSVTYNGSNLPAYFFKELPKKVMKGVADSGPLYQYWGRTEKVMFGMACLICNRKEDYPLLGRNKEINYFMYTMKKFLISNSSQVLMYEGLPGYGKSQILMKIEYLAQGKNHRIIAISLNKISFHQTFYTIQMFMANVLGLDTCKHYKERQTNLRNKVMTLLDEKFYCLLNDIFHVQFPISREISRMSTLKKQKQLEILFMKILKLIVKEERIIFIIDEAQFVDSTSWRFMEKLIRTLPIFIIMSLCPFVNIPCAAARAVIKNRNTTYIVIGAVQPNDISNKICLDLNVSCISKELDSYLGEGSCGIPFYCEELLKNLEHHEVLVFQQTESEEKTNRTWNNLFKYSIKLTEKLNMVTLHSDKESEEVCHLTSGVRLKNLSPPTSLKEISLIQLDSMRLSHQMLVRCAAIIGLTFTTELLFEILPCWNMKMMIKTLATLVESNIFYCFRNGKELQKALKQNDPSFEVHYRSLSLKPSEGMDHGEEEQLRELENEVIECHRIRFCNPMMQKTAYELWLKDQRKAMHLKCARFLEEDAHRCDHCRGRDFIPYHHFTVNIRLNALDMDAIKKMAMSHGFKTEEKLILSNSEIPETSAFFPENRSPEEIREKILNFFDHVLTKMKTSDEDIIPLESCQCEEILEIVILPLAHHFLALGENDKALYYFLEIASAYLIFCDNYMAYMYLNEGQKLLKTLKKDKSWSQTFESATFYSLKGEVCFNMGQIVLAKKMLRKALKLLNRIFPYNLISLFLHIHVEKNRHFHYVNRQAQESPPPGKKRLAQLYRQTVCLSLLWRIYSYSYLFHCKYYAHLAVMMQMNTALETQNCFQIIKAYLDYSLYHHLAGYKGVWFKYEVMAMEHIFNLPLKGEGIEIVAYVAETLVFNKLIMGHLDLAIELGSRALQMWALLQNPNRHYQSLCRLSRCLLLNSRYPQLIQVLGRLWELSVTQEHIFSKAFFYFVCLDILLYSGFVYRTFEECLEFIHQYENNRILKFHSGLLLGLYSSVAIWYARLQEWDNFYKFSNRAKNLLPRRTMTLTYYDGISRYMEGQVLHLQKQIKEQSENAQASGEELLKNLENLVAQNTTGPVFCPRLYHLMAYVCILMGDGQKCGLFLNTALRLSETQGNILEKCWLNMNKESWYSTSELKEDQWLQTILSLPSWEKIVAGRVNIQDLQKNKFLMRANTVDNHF

| SMILES | IC50 [1] [µM] | logD [2] | solubility kinetic [3] [µg/mL] | Papp at 3 h, 10 µM [4] [×10⁻⁶ cm/s] | further results |
| --- | --- | --- | --- | --- | --- |
| Cc1cc(-c2nn(C)cc2Cc2cccs2)nc(N)n1 | > 1 | – | – | – | – |
| Cc1c(Cc2cccs2)c(-c2cc(Cl)nc(N)n2)nn1C | – | 2.7 | 0.38 (≈ 1.19 µM) | 28 | – |
| Cn1cc(Cc2cccs2)c(-c2cc(Cl)nc(N)n2)n1 | – | 2.5 | 6.3 (≈ 20.6 µM) | 25.8 | – |
| Cc1c(Cc2ccnn2C)c(-c2cc(Cl)nc(N)n2)nn1C | > 10 | – | – | – | – |
| CN(C)Cc1c(Cc2ccccc2)c(-c2cc(Cl)nc(N)n2)nn1C | > 10 | – | – | – | – |
| Cc1c(Cc2ccccc2)c(-c2cc(Cl)nc(N)n2)nn1C | – | 2.9 | 1.3 (≈ 4.14 µM) | 27.4 | Cmax [5]: 45 µM; Cmax [6]: 15.5 µM; bioavailability [7]: 59%; MRT [8]: 2.82 h; MRT [9]: 3.95 h; AUC at 24 h [10]: 94 µM·h; AUC at 24 h [11]: 72 µM·h |
| Cc1ccc(Cc2cn(C)nc2-c2cc(Cl)nc(N)n2)s1 | > 1 | – | – | – | – |
| CNC(=O)c1c(Cc2ccccc2)c(-c2cc(Cl)nc(N)n2)nn1C | > 10 | – | – | – | – |
| Cn1cc(Cc2cccc(F)c2)c(-c2cc(Cl)nc(N)n2)n1 | – | 2.8 | 7.5 (≈ 23.6 µM) | 25.7 | – |
| Nc1nc(Cl)cc(N(Cc2cccs2)C2CC2)n1 | – | – | – | – | microsomal CLint [12]: 360 µL/min/mg; microsomal CLint [13]: > 768 µL/min/mg; bioavailability [14]: < 5% |
